{
  "source": "paper PMC9350387",
  "about": "“Synthetic α‐Helical Peptides as Potential Inhibitors of the ACE2 SARS‐CoV‐2 Interaction” (Chembiochem, 2022)",
  "key": {"[1]": {"assay": "Fractional α‐helicity by circular dichroism (CD) spectroscopy", "assay_type": "physicochemical", "conditions": "for fH (exp), measured fractional helicity via CD spectroscopy: 60 μM peptide, 10 mM sodium phosphate buffer pH 7.4, 4 °C, CDSSTR algorithm on DichroWeb"}, "[2]": {"target": "Spike RBD RBD (Severe acute respiratory syndrome coronavirus 2), P0DTC2", "assay": "MST", "conditions": "modification not given"}},
  "data": [
    {"molecule": "Ac‐βHAsp‐P‐P‐QAKTFLDKFNHEAEDLFYQ‐NH2 [P‐1‐2]", "values": [
      {"measurement": "fH (exp), measured fractional helicity via CD spectroscopy", "setting": "[1]", "value": 4, "unit": "%"}
    ]},
    {"molecule": "Ac-QAKTFLDKFNHEAEDLFYQ-NH2 [P‐1‐3, N‐acetylated parent peptide, α1 from Gln24 to Gln42]", "values": [
      {"measurement": "fH (exp), measured fractional helicity via CD spectroscopy", "setting": "[1]", "value": "≤1", "unit": "%"}
    ]},
    {"molecule": "Ac‐ E QAKTFLDKFNHEAEDLFYQ K ‐NH2 [P‐2‐3]", "values": [
      {"measurement": "fH (exp), measured fractional helicity via CD spectroscopy", "setting": "[1]", "value": 5, "unit": "%"}
    ]},
    {"molecule": "Ac‐βHAsp‐[ProM‐5]‐QAKTFLDKFNHEAEDLFYQ‐NH2 [P‐1‐1, βHAsp‐ProM‐5 N‐capped peptide of ACE2 α1 Gln24 to Gln42]", "values": [
      {"measurement": "fH (exp), measured fractional helicity via CD spectroscopy", "setting": "[1]", "value": 4, "unit": "%"}
    ]},
    {"molecule": "Ac‐ E QAK AAA DK AA HEAE AAA YQ K ‐NH2 [P‐3‐3]", "values": [
      {"measurement": "fH (exp), measured fractional helicity via CD spectroscopy", "setting": "[1]", "value": 42, "unit": "%"},
      {"measurement": "α‐helicity from CD spectra (in words)", "setting": "[1]; 60 μM, 10 mM sodium phosphate buffer, pH 7.4, 4 °C", "value": "pronounced α‐helicity"}
    ]},
    {"molecule": "EQAKTFLDKFNHEAEDLFYQK", "note": "[ACE2 alpha1 peptide P-2-1]", "values": [
      {"measurement": "Kd", "setting": "[2]", "value": 1210, "unit": "nM"}
    ]},
    {"molecule": "PPEQAKTFLDKFNHEAEDLFYQK", "note": "[ACE2 alpha1 peptide P-2-2]", "values": [
      {"measurement": "Kd", "setting": "[2]", "value": 62, "unit": "nM"}
    ]}
  ]
}
